Experimental data taken from the SangsterLogP compilation.
Each block holds one compound with its values, some of them ahead of it.

Key:
[1] = method code SF-AS, from DOI: 10.1002/etc.5620180606
[2] = method code SF-AS, from DOI: 10.1021/jm00296a014, PMID: 5418493
[3] = method code SF, from DOI: 10.1021/jm00237a002, PMID: 1133810; conditions: pH 7.2
[4] = method code SF-HPLC, from DOI: 10.1039/a702469j; conditions: pH 7.0
[5] = method code SF-HPLC, from DOI: 10.1016/0378-5173(89)90028-8
[6] = method code SF-HPLC, from DOI: 10.1002/jps.10072, PMID: 11920751; conditions: pH 7.4
[7] = method code SF-AS, from DOI: 10.1016/0045-6535(95)00267-c
[8] = method code G-GLC, from DOI: 10.1021/es00169a004
[9] = not given; remark: listed apart in the source
[10] = not given; remark: listed apart in the source
[11] = not given; remark: listed apart in the source
[12] = method code SF-GLC, from DOI: 10.1016/0048-3575(76)90072-9
[13] = method code SF-HPLC, from DOI: 10.1023/a:1015862319927, PMID: 2062808; conditions: pH 7.4
[14] = method code SF-AS, from DOI: 10.1016/0378-5173(84)90231-x
[15] = not given; remark: listed apart in the source
[16] = pH 7.4
[17] = not given; remark: listed apart in the source
[18] = method code SF-AS, from Dallet, P.; Dubost, J.; Colleter, J.; Audry, E.; Creuzet, M. (1985). QSAR in a series of alpha-adrenolitic molecules: optimization of physicochemical parameters. Eur J Med Chem, 20(6)551-557.
[19] = not given; remark: listed apart in the source
[20] = not given; remark: listed apart in the source
[21] = method code SF-AS, from DOI: 10.1139/cjpp-75-12-1362, PMID: 9534947
[22] = not given; remark: listed apart in the source
[23] = method code SF-RC, from DOI: 10.1016/s0969-8051(02)00326-8, PMID: 12234587; conditions: pH 7.4
[24] = method code SF-GLC, from DOI: 10.1016/j.chemosphere.2013.04.065, PMID: 23732011
[25] = method code SF-HPLC, from DOI: 10.1016/j.ejpb.2013.06.022, PMID: 23958327; conditions: pH 6.0
[26] = not given; remark: listed apart in the source
[27] = not given; remark: listed apart in the source

logP [1]: 5.3
SMILES: Nc1c(Oc2ccc(CN3CCCCCC3=O)cc2)cc(O)c2c1C(=O)c1ccccc1C2=O

SMILES: O=C(O)C1c2ccccc2-c2ccccc21
logP [2]: 2.8

logD [3]: 1.14
SMILES: CCCOc1cnc(NS(=O)(=O)c2ccccc2)nc1

SMILES: CCOP(=O)(OCC)C(C)(C)[N+]([O-])=Cc1cccnc1
logD [4]: 0.41

logP [5]: 1.43
SMILES: CCN(CC)C(=O)COC(=O)c1cn(CC)c2nc(C)ccc2c1=O

logP: 6.14
SMILES: Clc1cc2c(cc1Cl)=c1cc(Cl)c(Cl)cc1=2

logD [6]: -0.3
SMILES: CCCC(=O)OCC(CO)OCn1cnc2c(=O)[nH]c(N)nc21 (centres undefined)

SMILES: CC1CCCCC1NC(=O)Nc1ccccc1 (centres undefined)
logP [7]: 3.09

SMILES: O=C(O)C1c2ccccc2Sc2ccccc21
logP [2]: 2.57

logP [5]: 2.2
SMILES: CCCC(=O)OCOC(=O)c1cn(CC)c2nc(C)ccc2c1=O

SMILES: Clc1cc(Cl)c(-c2c(Cl)c(Cl)cc(Cl)c2Cl)c(Cl)c1Cl
logP [8]: 7.21

SMILES: COc1ccc(Cc2nccc3cc(OC)c(OC)cc23)cc1OC
logP [9]: 2.95

SMILES: CCCSP(=S)(OCC)Oc1ccc(SC)cc1 (centres undefined)
logP [10]: 4.9

SMILES: O=C(O)CCC12C=CC(CCC(=O)O)(OO1)c1ccccc12
logP [11]: -0.13

logP [12]: 1.6
SMILES: CCOC(=O)CN(C(=O)CCl)c1ccccc1

logD [3]: 0.86
SMILES: CC(C)Oc1cnc(NS(=O)(=O)c2ccccc2)nc1

logP [9]: 5.9
SMILES: Cc1ccc(Cl)c(Nc2ccccc2C(=O)O)c1Cl

logD [13]: 1.38
SMILES: COc1ccc(C(=O)OCC2OC(n3cc(I)c(=O)[nH]c3=O)CC2O)cc1 (centres undefined)

logP [9]: 4.2
SMILES: CCN(CC)Cc1cc(Nc2ccnc3cc(Cl)ccc23)ccc1O

logP [14]: 1.74
SMILES: Cc1ccc(C=[N+]([O-])C(C)(C)C)cc1

logP [15]: 0.35
SMILES: Cc1c(N=C2NCCN2)ccc2c1NCCO2

logD [16]: -1.71
SMILES: CSC[S@](=O)C[C@H](CO)NC(=O)/C=C/c1c(C)[nH]c(=O)[nH]c1=O

logP [17]: 6.58
SMILES: c1ccc2c(c1)-c1ccc3ccc4cccc5cc-2c1c3c45

logP [15]: 0.04
SMILES: Cc1c(N=C2NCCN2)ccc2c1NCCN2

logP [18]: 4.37
SMILES: Cc1cc(OCCN(C)C)c(C(C)C)cc1OS(=O)(=O)CC12CCC(CC1=O)C2(C)C (centres undefined)

logP [19]: 4
SMILES: O=C(c1ccc(O)cc1)c1ccc(Cl)cc1

SMILES: C1=Cc2cccc3cccc1c23
logP [17]: 4.07

SMILES: CCOP(=O)(NC(C)CC)Oc1cc(C)ccc1[N+](=O)[O-] (centres undefined)
logP [10]: 2.73

logD [3]: 1.41
SMILES: CCCCOc1cnc(NS(=O)(=O)c2ccccc2)nc1

SMILES: Clc1cccc(-c2c(Cl)ccc(Cl)c2Cl)c1Cl
logP [20]: 6.04

logP [21]: 1.39
SMILES: Cc1ncc(CO)c(/C=N/NC(=O)c2ccco2)c1O

logD [13]: 0.83
SMILES: CC(C)C(=O)OCC1OC(n2cc(I)c(=O)[nH]c2=O)C1O (centres undefined)

logP [22]: 3.15
SMILES: CCCNc1ccc(C(=O)OCCN(C)C)cc1

logP [19]: 5.92
SMILES: CCCCc1oc2ccccc2c1C(=O)c1cc(I)c(O)c(I)c1

logD [23]: 2.35
SMILES: CN(C)c1ccc(-c2cc3cc(I)ccc3o2)cc1

logP [17]: 6.84
SMILES: c1ccc2c(c1)ccc1cc3ccc4ccccc4c3cc12

logP [21]: 4.06
SMILES: O=C(N/N=C/c1c(O)ccc2ccccc12)c1cccc(F)c1

logP [21]: 3.04
SMILES: Nc1ccc(C(=O)N/N=C/c2c(O)ccc3ccccc23)cc1

SMILES: Clc1cc(Cl)c(-c2c(Cl)cccc2Cl)c(Cl)c1
logP [8]: 5.37

SMILES: CC12OOC(CCC(=O)O)(C=C1CCC(=O)O)c1ccccc12 (centres undefined)
logP [11]: 0.24

logD [13]: 1.24
SMILES: O=C(OC[C@H]1O[C@@H](n2cc(I)c(=O)[nH]c2=O)C[C@@H]1O)c1ccc([N+](=O)[O-])cc1

logP [24]: 2.4
SMILES: C=CCOc1ccc(OCCC)cc1

logD [6]: -0.78
SMILES: CC(=O)OCC(COC(C)=O)OCn1cnc2c(=O)[nH]c(N)nc21

SMILES: CCOP(=S)(NC(C)CC)Oc1cc(C)ccc1[N+](=O)[O-] (centres undefined)
logP [10]: 4.62

logP [12]: 3.37
SMILES: CCOC(=O)CN(C(=O)CCl)c1ccccc1-c1ccccc1

logD [6]: 0.83
SMILES: CCCCC(=O)OCC(COC(=O)CCCC)OCn1cnc2c(=O)[nH]c(N)nc21

logP [18]: 1.64
SMILES: CC(=O)Oc1ccc(OCCN(C)C)cc1C

SMILES: O=C(O)C1c2ccccc2Oc2ccccc21
logP [2]: 2.23

SMILES: Clc1ccc(Cl)c(-c2cccc(Cl)c2Cl)c1
logP [20]: 5.81

logD [25]: 2.9
SMILES: CCOC(=O)O[C@]1(C(=O)COC(=O)CC)CC[C@H]2[C@@H]3CCC4=CC(=O)C=C[C@]4(C)[C@H]3[C@@H](O)C[C@@]21C

SMILES: O=c1[nH]c2cc(Cl)ccc2n1C1CCNCC1
logP [26]: 1.59

SMILES: CCOP(=O)(OCC)C(C)(C)[N+]([O-])=Cc1ccncc1
logD [4]: 0.32

logP [5]: 1.23
SMILES: CCn1cc(C(=O)OC)c(=O)c2ccc(C)nc21

logP [24]: 3.5
SMILES: C=CCOc1ccc(OCC=C)cc1

logP [27]: 1.77
SMILES: CC1=CC(=O)c2cc(C)ccc2C1=O

logP [7]: 2.54
SMILES: COc1ccc(Oc2ccc(NC(=O)N(C)C)cc2)cc1

SMILES: Clc1cc(Cl)c(Cl)c(-c2ccccc2)c1Cl
logP [8]: 5.94

logP [1]: 4.08
SMILES: N#CCN(CCO)c1ccc(N=Nc2nc3ccc([N+](=O)[O-])cc3s2)cc1

logP [14]: 1.21
SMILES: COc1ccc(C=[N+]([O-])C(C)(C)C)cc1

SMILES: c1ccc(N=Nc2ccccc2)cc1
logP [27]: 3.92

logP [24]: 3.8
SMILES: C=CCOc1cccc(OCC=C)c1

SMILES: CC(C)NCC(O)COc1cccc2[nH]ccc12 (centres undefined)
logP [27]: 1.76

logP [22]: 1.95
SMILES: CNc1ccc(C(=O)OCCN(C)C)cc1

logP [19]: 4.87
SMILES: CCCCc1oc2ccccc2c1C(=O)c1ccc(O)cc1

SMILES: Cc1c(N=C2NCCN2)ccc2nccnc12
logP [15]: 0.9

logD [23]: 2.97
SMILES: Oc1ccc(-c2cc3cc(I)ccc3o2)cc1

logP [20]: 5.68
SMILES: Clc1cc(Cl)cc(-c2cc(Cl)c(Cl)cc2Cl)c1

logP [14]: 2.19
SMILES: CCc1ccc(C=[N+]([O-])C(C)(C)C)cc1

logP [26]: 0.85
SMILES: O=c1[nH]c2ccccc2n1C1=CCNCC1

logD [25]: 5.6
SMILES: CCOC(=O)c1ccc(C#Cc2ccc3c(c2)C(C)(C)CCS3)nc1

logD [16]: -0.7
SMILES: CSC[S@](=O)C[C@H](C)NC(=O)/C=C/c1c(C)[nH]c(=O)[nH]c1=O

logP: 5.75
SMILES: Clc1cc(Cl)c2[nH]c3c(Cl)cc(Cl)cc3c2c1

logP [18]: 4.25
SMILES: Cc1cc(OCCNCC2CC(=O)c3ccccc3C2=O)c(C(C)C)cc1O (centres undefined)

logP [7]: 4.1
SMILES: CCCCN(C)C(=O)Nc1ccc(Cl)c(Cl)c1

SMILES: O=c1[nH]c2ccccc2n1C1CCNCC1
logP [26]: 1.14

logP [22]: 4.14
SMILES: CCCCCNc1ccc(C(=O)OCCN(C)C)cc1

SMILES: CC12C=CC(C)(OO1)c1ccccc12
logP [11]: 2.17

logP [12]: 2.75
SMILES: CCOC(=O)CN(C(=O)CCl)c1ccccc1OC(C)C

logD [16]: 0.6
SMILES: CCCCCSCS(=O)CC(CO)NC(=O)/C=C/c1c(C)[nH]c(=O)[nH]c1=O (centres undefined)

logP [1]: 4.56
SMILES: Nc1c(Cl)c(Cl)c(N)c2c1C(=O)c1ccccc1C2=O

logD [4]: -0.68
SMILES: CCOP(=O)(OCC)C(C)(C)[N+]([O-])=Cc1cc[n+]([O-])cc1

SMILES: Clc1cc2c(cc1Cl)Oc1c(Cl)c(Cl)c(Cl)c(Cl)c1O2
logP: 7.79

logD [23]: 2.12
SMILES: CN(C)c1ccc(-c2cc3ccc(I)cc3o2)cc1

logD [25]: 2.3
SMILES: Cc1cc(C2CCCCC2)n(O)c(=O)c1
